SMILES strings stand for the structures. Counter-ions that a name gives are not always drawn. Like-named read-outs stand apart in the source and are kept apart here.

The test system of assay [1] is BN-rats. Briefly: Airways' hyper-responsiveness ex vivo: tracheal contraction to acetylcholine after antigen challenge and intratracheal pretreatment (Model 1). In kind it is in vivo, rat. Particulars: for MAX** Contraction at maximal Ach concentration relative to control (mean ± SEM) / ED50* log M acetylcholine (Ach), causing 50% contraction relative to control (mean ± SEM): trachea 48 h post challenge; for ED50* log M acetylcholine (Ach), causing 50% contraction relative to control (mean ± SEM): sensitized BN rats. Here is the method: Brown Norway (BN) rats were actively sensitized to ovalbumin (OA) by a subcutaneous injection of 0.5 ml of OA/Al(OH)3 gel mixture (2 mg OA+10 g Al(OH)3/100 ml saline) on day 1 with subsequent subcutaneous injections (10 mg OA+10 g Al(OH)3/100 ml saline) given on days 14 and 21. On day 28, animals received the compound described in the first example intratracheally (0.001; 0.01; 0.1 or 1.0 mg/kg dose) 2 hours before antigen challenge. Antigen challenge was performed by inhalation of nebulised ovalbumin (1% antigen solution administered in a TSE inhalation system for 1 hour). Animals were sacrificed 48 hours post antigen challenge wherein the tracheas were removed to an organ bath. Dissected tracheas were allowed to equilibrate for 30 minutes before measuring tracheal spasmogenic response curves to acetylcholine (Ach).

For assay [2], the system named is BN rats. Briefly: Allergen stimulated mucus production of airways epithelial cells (Model 2). In kind it is in vivo, rat. Particulars: for number of PAS(+) cells as percent of total number of cells (average ± SEM): lungs 48 hours after challenge. The method, then:
Sensitized BN rats were treated intratracheally with varying (0.001-1.0 mg/kg) dose of compound described in the first example, two hours before antigenic challenge, using a similar protocol described in Model 1. Lungs were collected 48 hours after challenge and were fixed in 8% phosphate buffered formaldehyde. Samples were then processed for histochemistry routinely. 5 μm thick sections were stained with periodic-acid-Schiff (PAS) reagents and were counterstained with haematoxylin-eosine. On the sections each epithelial cells of the airways were counted in the whole preparation at a magnification of 400×. The number of PAS(+) [mucus producing] epithelial cells was expressed as the ratio of the total number of epithelial cells.

The test system of assay [3] is BN rats. Briefly: Extent of perivascular oedema developed in asthmatic lung tissue (Model 3). In kind it is in vivo, rat. Particulars: for Oedema* area of oedema relative to area of vasculature (average ± SEM): lungs 48 hours after challenge. Here is the method:
Sensitized BN rats were treated intratracheally with varying (0.001-1.0 mg/kg) dose of compound described in the first example, two hours before antigenic challenge, using a similar protocol described in Model 1. Lungs were collected 48 hours after challenge and were fixed in 8% phosphate buffered formaldehyde. Samples were then processed for histochemistry routinely. 5 μm thick sections were stained with periodic-acid-Schiff (PAS) reagents and were counterstained with haematoxylin-eosine. On the sections the area of the connective tissue around the vasculare was determined and expressed as a ratio of the area of the corresponding blood vessel itself.

Assay [4] deals with BN rats. In words: Extent of peribronchial eosinophilia developed in asthmatic lung tissue (Model 4). Type of assay: in vivo, rat. Particulars: for peribronchial eosinophil number per visual field (average ± SEM): lungs 48 hours after challenge. Here is the method:
Sensitized BN rats were treated intratracheally with varying (0.001-1.0 mg/kg) dose of compound described in the first example, two hours before antigenic challenge, using a similar protocol described in Model 1. Lungs were collected 48 hours after challenge and were fixed in 8% phosphate buffered formaldehyde. Samples were then processed for histochemistry routinely. 5 μm thick sections were stained with May Gruenvald Giemsa and the number of eosinophils, situated peribronchially, was determined.

Assay [5] deals with T1, IP-3 receptor (Rattus norvegicus, UniProt P29994).
T1 construct: from tissue; host or cells: rat cerebellum (microsomal membrane preparation)
In words: IP-3 receptor antagonistic effect: inhibition of IP3 binding in rat cerebellum membrane preparations (Model 5). Here is the method:
The polysulfated glycosides of the present invention, depending on their chemical structure, inhibit the binding of inositol-1,4,5-trisphosphate (IP3) to its receptor in microsomal membrane preparations. As IP3 is a messenger molecule playing distinguished role in the activation of different cells, interfering with this function can explain the anti-asthmatic effect of these polysulfated glycosides. The IP3 antagonist effect of the polysulfated glycosides was determined using rat cerebellum membrane preparations according to Worley et al. (JBC 262, 12132, 1987).

Setting [6] is: 0.001 mg/kg intratracheally 2 hours before antigen challenge.
Setting [7] is: 0.1 mg/kg intratracheally 2 hours before antigen challenge.
The mark [8] stands for this setting: 0.001 mg/kg intratracheally two hours before antigenic challenge.
The mark [9] stands for this setting: 0.1 mg/kg intratracheally two hours before antigenic challenge.
The mark [10] stands for this setting: read-out: IC50 (μg/ml) Average ± SEM (n) (converted).

T1 sequence (P29994 whole entry): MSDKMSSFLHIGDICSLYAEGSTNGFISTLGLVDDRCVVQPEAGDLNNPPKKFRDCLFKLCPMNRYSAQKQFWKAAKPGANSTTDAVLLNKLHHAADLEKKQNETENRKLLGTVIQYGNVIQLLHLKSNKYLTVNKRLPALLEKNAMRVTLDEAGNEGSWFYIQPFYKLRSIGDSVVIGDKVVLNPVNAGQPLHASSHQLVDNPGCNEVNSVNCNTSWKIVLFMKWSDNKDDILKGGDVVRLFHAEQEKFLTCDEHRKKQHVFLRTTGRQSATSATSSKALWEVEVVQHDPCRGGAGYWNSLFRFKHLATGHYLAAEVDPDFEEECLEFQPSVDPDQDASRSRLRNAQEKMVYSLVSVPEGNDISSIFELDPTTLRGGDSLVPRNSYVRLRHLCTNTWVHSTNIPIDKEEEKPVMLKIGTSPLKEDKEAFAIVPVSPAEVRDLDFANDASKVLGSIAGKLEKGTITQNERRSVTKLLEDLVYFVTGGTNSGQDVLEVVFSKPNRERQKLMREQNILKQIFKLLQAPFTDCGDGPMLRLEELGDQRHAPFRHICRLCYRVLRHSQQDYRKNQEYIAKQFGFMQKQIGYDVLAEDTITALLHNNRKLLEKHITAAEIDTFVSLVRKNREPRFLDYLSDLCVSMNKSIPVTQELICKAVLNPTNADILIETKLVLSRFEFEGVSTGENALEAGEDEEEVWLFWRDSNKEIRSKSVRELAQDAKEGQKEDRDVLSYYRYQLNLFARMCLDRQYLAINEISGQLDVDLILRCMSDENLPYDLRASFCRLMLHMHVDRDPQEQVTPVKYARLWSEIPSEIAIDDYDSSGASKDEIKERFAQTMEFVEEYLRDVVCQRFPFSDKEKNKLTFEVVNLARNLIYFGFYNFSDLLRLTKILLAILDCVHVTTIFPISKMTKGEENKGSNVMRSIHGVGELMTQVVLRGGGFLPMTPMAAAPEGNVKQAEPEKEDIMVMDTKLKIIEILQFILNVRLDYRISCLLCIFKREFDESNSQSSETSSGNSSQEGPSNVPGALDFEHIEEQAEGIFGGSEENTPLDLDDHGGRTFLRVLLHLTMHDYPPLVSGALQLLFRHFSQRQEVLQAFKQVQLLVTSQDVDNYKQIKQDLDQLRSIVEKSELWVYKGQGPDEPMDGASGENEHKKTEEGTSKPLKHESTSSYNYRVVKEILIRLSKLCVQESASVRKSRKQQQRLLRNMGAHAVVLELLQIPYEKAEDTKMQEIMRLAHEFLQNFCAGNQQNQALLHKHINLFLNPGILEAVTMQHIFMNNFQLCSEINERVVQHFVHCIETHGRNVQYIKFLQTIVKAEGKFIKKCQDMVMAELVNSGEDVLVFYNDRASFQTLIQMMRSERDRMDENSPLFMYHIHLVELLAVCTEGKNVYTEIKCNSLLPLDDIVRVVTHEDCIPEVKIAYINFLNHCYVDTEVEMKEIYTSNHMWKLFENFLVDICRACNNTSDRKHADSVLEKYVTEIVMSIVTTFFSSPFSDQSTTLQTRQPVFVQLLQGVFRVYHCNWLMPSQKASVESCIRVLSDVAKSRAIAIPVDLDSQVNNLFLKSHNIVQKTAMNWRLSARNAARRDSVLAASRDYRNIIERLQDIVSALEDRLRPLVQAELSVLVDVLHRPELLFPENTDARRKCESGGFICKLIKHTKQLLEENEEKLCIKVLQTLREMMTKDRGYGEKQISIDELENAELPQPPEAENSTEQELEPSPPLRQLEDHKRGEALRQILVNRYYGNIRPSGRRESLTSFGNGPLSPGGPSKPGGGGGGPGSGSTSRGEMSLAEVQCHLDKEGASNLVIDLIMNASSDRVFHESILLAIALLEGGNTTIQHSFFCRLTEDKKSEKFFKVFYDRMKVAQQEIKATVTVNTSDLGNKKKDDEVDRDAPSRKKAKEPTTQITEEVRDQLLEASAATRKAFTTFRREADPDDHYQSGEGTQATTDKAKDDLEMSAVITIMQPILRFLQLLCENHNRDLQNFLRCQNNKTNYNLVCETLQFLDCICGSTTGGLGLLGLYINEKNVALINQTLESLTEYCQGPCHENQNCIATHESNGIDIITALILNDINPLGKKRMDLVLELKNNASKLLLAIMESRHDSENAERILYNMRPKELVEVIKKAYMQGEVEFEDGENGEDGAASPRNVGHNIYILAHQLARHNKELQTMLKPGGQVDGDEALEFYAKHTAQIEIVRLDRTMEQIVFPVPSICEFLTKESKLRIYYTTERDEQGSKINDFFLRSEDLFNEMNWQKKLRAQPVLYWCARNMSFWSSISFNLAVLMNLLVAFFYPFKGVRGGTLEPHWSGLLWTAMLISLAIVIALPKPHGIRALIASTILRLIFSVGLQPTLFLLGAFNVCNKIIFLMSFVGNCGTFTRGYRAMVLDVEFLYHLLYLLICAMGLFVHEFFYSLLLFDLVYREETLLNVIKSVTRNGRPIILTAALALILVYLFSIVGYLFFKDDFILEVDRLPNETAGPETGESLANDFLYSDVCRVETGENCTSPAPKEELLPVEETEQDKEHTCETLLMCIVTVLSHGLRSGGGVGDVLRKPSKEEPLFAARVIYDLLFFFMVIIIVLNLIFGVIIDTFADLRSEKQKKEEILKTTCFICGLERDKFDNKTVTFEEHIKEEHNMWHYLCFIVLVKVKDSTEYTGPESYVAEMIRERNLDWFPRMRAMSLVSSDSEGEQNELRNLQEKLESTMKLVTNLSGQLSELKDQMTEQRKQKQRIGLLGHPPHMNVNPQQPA

In the case of `O=S(=O)(O)OCC1OC(COS(=O)(=O)O)C(OS(=O)(=O)O)C1OC1OC(COS(=O)(=O)O)C(OS(=O)(=O)O)C(OS(=O)(=O)O)C1OS(=O)(=O)O` [Example 1, 2,5-Anhydro-1,4,6-tri-O-sulfato-3-O-(2,3,4,6-tetra-O-sulfato-α-L-idopyranosyl)-D-mannitol hepta sodium salt], the “MAX** Contraction at maximal Ach concentration relative to control (mean ± SEM)” value in assay [1] (setting [6]) came to 166 ± 41; in assay [1] (setting [7]) it was 99 ± 16. Moreover, the “ED50* log M acetylcholine (Ach), causing 50% contraction relative to control (mean ± SEM)” value in assay [1] (setting [6]) came to 5.78 ± 0.30 log M; in assay [1] (setting [7]), 4.70 ± 0.37 log M. Also, the “tracheal hyper-reactivity to acetylcholine after ovalbumin challenge (in words)” value in assay [1] (dose of 0.1 mg/kg, 48 h after antigen challenge) is given as “brought this elevation back to control level”. For the same compound, the “number of PAS(+) cells as percent of total number of cells (average ± SEM)” value in assay [2] (setting [8]) stood at 35.2 ± 3.5%; in assay [2] (setting [9]), 17.5 ± 2.4%. In addition, in assay [2] (dose of 0.1 mg/kg), the “number of PAS(+), mucus producing cells (in words)” value is recorded as “significantly decreased”. In addition, the “Oedema* area of oedema relative to area of vasculature (average ± SEM)” value in assay [3] (setting [8]) is 41 ± 6; in assay [3] (setting [9]), 53 ± 6. Moreover, the “extent of aedema around the vasculature (in words)” value in assay [3] (smallest dose) is on record as “significantly decreased”. Moreover, the “peribronchial eosinophil number per visual field (average ± SEM)” value in assay [4] (setting [8]) turned out to be 74 ± 2; in assay [4] (setting [9]), 25 ± 2. Moreover, the “number of peribronchially situated eosinophils in the lung (in words)” value is “the decrease become statistically significant” in assay [4] (higher doses) and “decreases the extent of it” in assay [4] (smallest dose). Further, the IC50 in assay [5] (read-out: Average IC50) is 1490 nM; in assay [5] (setting [10]), 1750 nM.
Regarding `O=S(=O)(O)OCC1OC(COS(=O)(=O)O)C(OS(=O)(=O)O)C1OC1OC(COS(=O)(=O)O)C(OS(=O)(=O)O)C(OS(=O)(=O)O)C1OS(=O)(=O)O` [Example 2, 2,5-Anhydro-1,4,6-tri-O-sulfato-3-O-(2,3,4,6-tetra-O-sulfato-α-L-idopyranosyl)-D-mannitol hepta potassium salt], the IC50 in assay [5] (read-out: Average IC50) was 4810 nM; in assay [5] (setting [10]), 5650 nM.
Turning to `O=S(=O)(O)OC[C@H]1O[C@@H](O[C@H]2[C@H](OS(=O)(=O)O)[C@@H](COS(=O)(=O)O)O[C@@H]2COS(=O)(=O)O)[C@H](OS(=O)(=O)O)[C@@H](OS(=O)(=O)O)[C@@H]1OS(=O)(=O)O` [Example 3, 2,5-Anhydro-1,4,6-tri-O-sulfato-3-O-(2,3,4,6-tetra-O-sulfato-β-D-glucopyranosyl)-D-mannitol hepta sodium salt], the IC50 is 1390 nM in assay [5] (read-out: Average IC50) and 1210 nM in assay [5] (setting [10]).
Regarding `O=S(=O)(O)OC[C@H]1O[C@H](COS(=O)(=O)O)[C@@H](OS(=O)(=O)O)[C@@H]1O[C@@H]1OC[C@H](OS(=O)(=O)O)[C@H](OS(=O)(=O)O)[C@H]1OS(=O)(=O)O` [Example 4, 2,5-Anhydro-1,4,6-tri-O-sulfato-3-O-(2,3,4-tri-O-sulfato-α-L-arabinopyranosyl)-D-mannitol hexa potassium salt], the IC50 in assay [5] (read-out: Average IC50) was 20300 nM; in assay [5] (setting [10]), 26300 nM.
Turning to `O=S(=O)(O)OC[C@H]1O[C@H](COS(=O)(=O)O)[C@@H](OS(=O)(=O)O)[C@@H]1O[C@H]1OC[C@@H](OS(=O)(=O)O)[C@@H](OS(=O)(=O)O)[C@@H]1OS(=O)(=O)O` [Example 5, 2,5-Anhydro-1,4,6-tri-O-sulfato-3-O-(2,3,4-tri-O-sulfato-α-D-arabinopyranosyl)-D-mannitol hexa potassium salt], the IC50 in assay [5] (read-out: Average IC50) was 26500 nM; in assay [5] (setting [10]), 34300 nM.
For `O=S(=O)(O)OC[C@H]1O[C@@H](O[C@H]2[C@H](OS(=O)(=O)O)[C@@H](COS(=O)(=O)O)O[C@@H]2COS(=O)(=O)O)[C@H](OS(=O)(=O)O)[C@@H](OS(=O)(=O)O)[C@@H]1O[C@H]1O[C@H](COS(=O)(=O)O)[C@@H](OS(=O)(=O)O)[C@H](OS(=O)(=O)O)[C@H]1OS(=O)(=O)O` [Example 6, 2,5-Anhydro-1,4,6-tri-O-sulfato-3-O-(2,3,6,2′,3′,4′,6′-hepta-O-sulfato-β-D-maltosyl)-D-mannitol deca potassium salt], the values for the IC50 in assay [5] (read-out: Average IC50) and in assay [5] (setting [10]) were 222 nM and 287 nM, respectively.
`O=S(=O)(O)OC[C@H]1O[C@@H](OC[C@H]2O[C@@H](O[C@H]3[C@H](OS(=O)(=O)O)[C@@H](COS(=O)(=O)O)O[C@@H]3COS(=O)(=O)O)[C@H](OS(=O)(=O)O)[C@@H](OS(=O)(=O)O)[C@@H]2OS(=O)(=O)O)[C@H](OS(=O)(=O)O)[C@@H](OS(=O)(=O)O)[C@@H]1OS(=O)(=O)O` [Example 7, 2,5-Anhydro-1,4,6-tri-O-sulfato-3-O-[6-O-(2,3,4,6-tetra-O-sulfato-β-D-glucopyranosido)-2,3,4-tetra-O-sulfato-β-D-glucopyranosyl]-D-mannitol deca potassium salt]: the IC50 in assay [5] (read-out: Average IC50) was 240 nM; in assay [5] (setting [10]) it was 310 nM.
On to `O=S(=O)(O)OC[C@H]1O[C@@H](OC[C@H]2O[C@H](CO[C@@H]3O[C@H](COS(=O)(=O)O)[C@@H](OS(=O)(=O)O)[C@H](OS(=O)(=O)O)[C@H]3OS(=O)(=O)O)[C@@H](OS(=O)(=O)O)[C@@H]2OS(=O)(=O)O)[C@H](OS(=O)(=O)O)[C@@H](OS(=O)(=O)O)[C@@H]1OS(=O)(=O)O` [Example 8, 2,5-Anhydro-3,4-di-O-sulfato-1,6-bis-O-(2,3,4,6-tetra-O-sulfato-β-D-glucopyranosyl)-D-mannitol deca potassium salt], for which the IC50 is 539 nM in assay [5] (read-out: Average IC50) and 698 nM in assay [5] (setting [10]).
For `O=S(=O)(O)OCC1OC(OCC2OC(OCC3OC(COC4OC(COC5OC(COS(=O)(=O)O)C(OS(=O)(=O)O)C(OS(=O)(=O)O)C5OS(=O)(=O)O)C(OS(=O)(=O)O)C(OS(=O)(=O)O)C4OS(=O)(=O)O)C(OS(=O)(=O)O)C3OS(=O)(=O)O)C(OS(=O)(=O)O)C(OS(=O)(=O)O)C2OS(=O)(=O)O)C(OS(=O)(=O)O)C(OS(=O)(=O)O)C1OS(=O)(=O)O` [Example 9, 2,5-Anhydro-3,4-di-O-sulfato-1,6-bis-[(6-O-2,3,4,6-tetra-O-sulfato-β-D-glucopyranosido)-2,3,4-tri-O-sulfato-β-D-glucopyranosyl]-D-mannitol hexadeca potassium salt], the IC50 in assay [5] (read-out: Average IC50) was 115 nM; in assay [5] (setting [10]) it was 148 nM.
As to `O=S(=O)(O)OC[C@H]1O[C@@H](OC[C@H]2O[C@H](CO[C@@H]3O[C@H](COS(=O)(=O)O)[C@@H](OS(=O)(=O)O)[C@H](OS(=O)(=O)O)[C@H]3OS(=O)(=O)O)[C@@H](OS(=O)(=O)O)[C@@H]2O[C@@H]2O[C@H](COS(=O)(=O)O)[C@@H](OS(=O)(=O)O)[C@H](OS(=O)(=O)O)[C@H]2OS(=O)(=O)O)[C@H](OS(=O)(=O)O)[C@@H](OS(=O)(=O)O)[C@@H]1OS(=O)(=O)O` [Example 10, 2,5-Anhydro-4-O-sulfato-1,3,6-tris-O-(2,3,4,6-tetra-O-sulfato-β-D-glucopyranosyl)-D-mannitol trideca potassium salt], the IC50 in assay [5] (read-out: Average IC50) was 137 nM; in assay [5] (setting [10]), 177 nM.

Values taken from US20080249165A1, “Glycosides and Salts Thereof” (Ivax Drug Research Institute Ltd., priority 2004, published 2008).
